Results reported in patent US20100204155A1, “USE OF THE PEPTIDE SFLLR-OH AND MURAMYL DIPEPTIDE AS THERAPEUTIC AGENTS” (priority 2007, published 2010).
Where no end group is shown, it is not given here.

Assays:
HIV-1IIIB = experiment: HIV-1 antiviral assay in CEM-SS cells (MTS); format: cell-based; settings: positive controls
HCMV strain AD169 = experiment: HCMV plaque formation assay in MRC-5 cells; settings: for inhibition of HCMV plaque formation as compared to the virus control: 10 micrograms per ml, HCMV AD169, 7-10 days
[1] = tested on: hepatitis B virus (HBV) ayw strain; experiment: HBV assay in HepG2-2.2.15 cells (TaqMan PCR of secreted HBV DNA); format: cell-based; settings: 10 micrograms per ml, six days, HBV DNA by TaqMan PCR
From the text: HepG2-2.2.15 is a stable cell line containing the hepatitis B virus (HBV) ayw strain genome (ATCC Cat. No. CRL-11997). Antiviral compounds blocking any late step of viral replication such as transcription, translation, pregenome encapsidation, reverse transcription, particle assembly and release can be identified and characterized using this cell line. In this assay, an active compound will reduce the production of secreted HBV from cells, measured by utilizing real time quantitative PCR (TaqMan) assay to directly and accurately measure HBV DNA copies.
HepG2-2.2.15 cells were plated in 96-well microtiter plates. After 16-24 hours the confluent monolayer of HepG2-2.2.15 cells was washed and the medium was replaced with complete medium containing test peptides—10 micrograms per ml—in duplicate. […] Six days following the initial administration of the peptides, the cell culture supernatants was collected, treated with pronase and DNAse and then used in a real-time quantitative TaqMan PCR assay. The PCR-amplified HBV DNA was detected in real-time by monitoring increases in fluorescence signals that result from the exonucleolytic degradation of a quenched fluorescence probe molecule that hybridizes to the amplified HBV DNA. […] Antiviral activity was calculated from the reduction in HBV DNA levels (% virus control). […]

TNF-a spleen cells = experiment: Th1/Th2 cytokine profiling assay: TNF-a; format: cell-based; settings: 10 micrograms per ml; Ovalbumin-restimulated spleen cells of immunized Balb/c mice, 72 hours
From the text: (§1) The Balb/c mice (originated in 1923, it is a popular strain and is used in many different research disciplines. Also classified as an inbred from the production of 20 or more successive brother-sister matings, the Balb/c mouse is albino and small in size) were immunized on Days 1, 15, and 29 with Ovalbumin (Ovalbumin is the main protein found in egg white, commonly used to stimulate an immunological reaction in test animals) in PBS (5 micrograms/injection). On day 50, spleens of the mice were harvested (3 weeks after last boost with Ovalbumin). Cells were cultured (2×10^5/well in triplicate) and incubated with culture medium or test peptides—10 micrograms per ml—for 30 min. Thereafter, additional Ovalbumin was added to the cells at 10 micrograms/ml for in vitro restimulation of the cells. 72 hours later, cell supernatants were harvested and assayed using the Becton Dickinson Mouse Th1/Th2 Cytokine CBA Kit.

IFNγ spleen cells = experiment: Th1/Th2 cytokine profiling assay: IFNγ; format: cell-based; settings: 10 micrograms per ml; Ovalbumin-restimulated spleen cells of immunized Balb/c mice, 72 hours
From the text: as §1

IL-2 spleen cells = experiment: Th1/Th2 cytokine profiling assay: IL-2; format: cell-based; settings: 10 micrograms per ml; Ovalbumin-restimulated spleen cells of immunized Balb/c mice, 72 hours
From the text: as §1

IL-4 spleen cells = experiment: Th1/Th2 cytokine profiling assay: IL-4; format: cell-based; settings: 10 micrograms per ml; Ovalbumin-restimulated spleen cells of immunized Balb/c mice, 72 hours
From the text: as §1

IL-5 spleen cells = experiment: Th1/Th2 cytokine profiling assay: IL-5; format: cell-based; settings: 10 micrograms per ml; Ovalbumin-restimulated spleen cells of immunized Balb/c mice, 72 hours
From the text: as §1

[2] = tested on: Primary Human endothelial cells (HUVEC); experiment: Endothelial cell migration assay; format: cell-based; settings: 10 micrograms per ml, 22 hours, combination peptide 1:peptide 2 0.95 mole:1.05 mole
Procedure: Thereafter, designated concentration of testing peptides—10 micrograms per ml—was added in duplicate wells.

HUVEC = experiment: Endothelial tube formation assay; format: cell-based, human; settings: 10 micrograms per ml, 20 hours, combination peptide 1:peptide 2 0.95 mole:1.05 mole
From the text: Positive control was vehicle only.

Cc1cn([C@H]2C[C@H](N=[N+]=[N-])[C@@H](CO)O2)c(=O)[nH]c1=O [AZT]
antiviral activity of positive control compounds (HIV-1 assay) (HIV-1IIIB): expected levels of antiviral activity

Nc1nc(O)c2ncn(COC(CO)CO)c2n1 [Ganciclovir, reference compound]
antiviral activity of positive control compound (HCMV assay) (HCMV strain AD169; positive control, HCMV AD169): expected levels of antiviral activity

CC(C)(C)NC(=O)[C@@H]1CN(Cc2cccnc2)CCN1C[C@@H](O)C[C@@H](Cc1ccccc1)C(=O)N[C@H]1c2ccccc2C[C@H]1O [indinavir]
antiviral activity of positive control compounds (HIV-1 assay) (HIV-1IIIB): expected levels of antiviral activity

Ac-muramyl-Ala-D-Glu-NH2 [Peptide 2]
inhibition of HBV replication as compared to the virus control infection [1]: 54.4% | TNF-a spleen cells; TH1 response (% of control) (TNF-a spleen cells): 134.0 % of control | IFNγ spleen cells; TH1 response (% of control) (IFNγ spleen cells): 146.7 % of control | IL-2 spleen cells (% of control) (IL-2 spleen cells): 0.0 % of control | IL-4 spleen cells; TH2 response (% of control) (IL-4 spleen cells): 94.5 % of control | IL-5 spleen cells; TH2 response (% of control) (IL-5 spleen cells): 71.3 % of control | inhibition of the migration of human endothelial cells [2]: did not inhibit | inhibition of the tube formation of endothelial cells (HUVEC): 27% | inhibition of HCMV plaque formation as compared to the virus control (HCMV strain AD169): did not inhibit

Ser-Phe-Leu-Leu-Arg-OH (SFLLR-OH) [Peptide 1]
inhibition of HBV replication as compared to the virus control infection [1]: 39.6% | TNF-a spleen cells; TH1 response (% of control) (TNF-a spleen cells): 121.8 % of control | IFNγ spleen cells; TH1 response (% of control) (IFNγ spleen cells): 129.1 % of control | IL-2 spleen cells (% of control) (IL-2 spleen cells): 55.7 % of control | IL-4 spleen cells; TH2 response (% of control) (IL-4 spleen cells): 0.0 % of control | IL-5 spleen cells; TH2 response (% of control) (IL-5 spleen cells): 55.9 % of control | inhibition of the migration of human endothelial cells [2]: 29% | inhibition of the tube formation of endothelial cells (HUVEC): 12% | inhibition of HCMV plaque formation as compared to the virus control (HCMV strain AD169): did not inhibit
